# Laboratory results: patent US20200129450A1, “COMPOSITION COMPRISING OSMUNDACETONE OR PHARMACEUTICALLY ACCEPTABLE SALT THEREOF FOR PREVENTING OR TREATING BONE DISEASE” (KORPHARM CO., LTD., priority 2016, published 2020)
# Values joined by “and” are separate entries in the source; they are usually repeats but may differ in a detail not shown here. Identical values can stand only once.
# Columns and labels:
# [1] = test system: AGS human stomach adenocarcinoma; assay: MTT assay cytotoxicity; type: cell-based; conditions: 24 hours
# Experimental: (§1) AGS human stomach adenocarcinoma cells (# KCLB 21739), A549 human lung carcinoma cells (# KCLB 10185), Caki-1 human kidney carcinoma cells (# KCLB 30046), T24 human bladder carcinoma cells (# KCLB 30004), TC-1 P3 HPV-16E7-expressing mouse pulmonary epithelial cells, MHC class I (provided by Tae-Woo Kim, a professor of Korea University) were incubated using RPMI (Rosewell Park Memorial Institute) 1640 (# RPMI-A, Capricorn Scientific, Ebsdorfergrund, Germany) in the conditions of 37° C. and 5% CO2.
# (§2) The compound isolated from Osmunda japonica, prepared in section 1 of <Example 1>, was investigated for cytotoxicity using MTT assay.
# (§3) MTT assay was as follows.
# (§4) Cells were incubated at 1×10^3 cells/well in a 96-well plate containing DMEM with 10% fetal bovine serum (FBS) at 5% CO2 and 37° C., and then osmundacetone was added to the cell medium, followed by incubation for 24 hours. Thereafter, 100 μL of MTT (0.5 mg/ml PBS) was administered, followed by incubation for 2 hours. Thereafter, the medium was removed from each well, and 100 μL of DMSO was added. After incubation for 10 minutes, the absorbance was measured using a microplate reader (SPCTRA MAX 340PC, Molecular Devices, USA) at 570 nm. The absorbance is an indicator showing the number of living cells, and calculated by the following equation. The reproducibility thereof was validated by three experiments. […]
# [2] = test system: A549 human lung carcinoma; assay: MTT assay cytotoxicity; type: cell-based; conditions: cancer cell
# Experimental: as §1, §2, §3, §4
# mature osteoclasts = assay: Bone resorption assay (OsteoLyse Assay Kit) with mature osteoclasts; type: cell-based, mouse; conditions: 8 μM (IC50 concentration), mature osteoclasts treated for 3 days, normalized by cellular DNA
# Experimental: The quantitative measurement of in vitro osteoclast-mediated degradation of human bone collagen was carried out using the OsteoLyse™ Assay Kit (Lonza Walkersville, Inc. Walkersville, Md., USA) according to manufacturer's instructions.
# This assay allows a direct measurement of the release of […] into the osteoclast resorption lacuna (Delaisse et al., 2003).
# Briefly, 2×10^4 mouse bone marrow cells prepared above were dispensed in 96-well OsteoLyse™ cell culture plate coated with europium-conjugated collagen.
# The cells were incubated in 0.1 mL of complete α-MEM per well in the presence of M-CSF (60 ng/mL) and RANKL (150 ng/mL) in the conditions of 37° C. and 5% CO2 for 6 days. Thereafter, the medium was exchanged on day 3 of the dispensing.
# In order to measure the ability to inhibit the mature osteoclastic functions, the medium was exchanged on day 6, and osmundacetone was added at an IC50 concentration obtained from TRAP analysis.
# After the mature osteoclasts were treated with osmundacetone for 3 days, 10 μL of a supernatant of the cell culture was taken, and placed in a second 96-well analysis plate containing fluorophore-Releasing reagent. The degraded collagen was measured using a time-resolved fluorescence fluorimeter, Wallac Victor (Perkin Elmer, Waltham, Mass., USA). […]
# [3] = test system: osteoclasts co-incubated with MC3T3-E1 cells; assay: Co-culture of osteoclasts and osteoblasts: osteoclast proliferation and differentiation; type: cell-based, mouse; conditions: 10 μM
# Experimental: 1×10^5 C57BL/6 mouse bone marrow mononuclear cells per well of a 48-well plate were prepared in the same manner as described above, and co-incubated together with 1.5×10^4 MC3T3-E1 murine osteoblasts, using 500 μL of α-MEM containing 10% FBS and 1% antibiotic (100 U/mL penicillin G and […] streptomycin) in the conditions of 37° C. and 5% CO2 while the medium was exchanged every three days.
# Positive control cells were co-incubated together with osteoclast differentiation factors M-CSF (60 ng/mL) and RANKL (150 ng/mL), and osteoblast differentiation factors ascorbic acid (50 μg/mL) and 10 mM R-glycerophosphate.
# Negative control cells were incubated by adding only M-CSF as a differentiation factor. In order to examine effects of osmundacetone on the differentiation of osteoclasts and osteoblasts, osmundacetone were administered at a final concentration of 10 μM into the positive control cells on day 1 after the cells were dispensed on the plate.
# In order to investigate whether or not osmundacetone has ability to inhibit osteoclast differentiation and activate osteoblast differentiation simultaneously, bone marrow mononuclear cells collected from C57BL/6 mice and MC3T3-E1 cells as osteoblast precursor cells were co-incubated in a 48-well plate at cell concentrations of 1×10^5 bone marrow cells and 3×10^3 MC3T3-E1 cells per well. […]
# ALP activity in MC3T3-E1 = assay: Measurement of ALP activity in MC3T3-E1; type: cell-based, mouse; conditions: MC3T3-E1, day 14, mean±s.d.
# Experimental: ALP activity was assessed using Quantichrom ALP Assay Kit (Bioassay Systems, Hayward, Calif., USA) according to manufacturer's instructions.
# Briefly, 3×10^3 MC3T3-E1 cells were dispensed in a 96-well plate together with […] of complete α-MEM containing ascorbic acid (50 μg/mL) and 10 mM β-glycerophosphate per well. Here, osmundacetone (10 μM and 50 μM) was added or not added, and the medium was exchanged every 3-4 days.
# On day 14 of the incubation, the colorimetric change due to ALP activity in the cell fraction was measured using a spectrophotometer plate reader (Molecular Devices, Sunnyvale, Calif., USA) at 405 nm (Kim et al., 2016). The % activation of ALP activity was shown by comparing ALP activity of cells treated with an experimental compound and ALP activity of the non-treated control cells.
smiles,measurement,setting,value
"CC(=O)/C=C/c1ccc(O)c(O)c1 [Osmundacetone, (3E)-4-(3,4-dihydroxyphenyl)-3-buten-2-one]",LD50 (MTT assay),[1],59.9 ± 6.1 µM
same,LD50 (μM) Based on MIT Assay,[2],">5,000 μM"
same,"bone resorption function of mature osteoclasts, % that of non-treated osteoclasts",mature osteoclasts,58.7±13%
same,proliferation and differentiation of osteoclasts in co-incubation,[3],completely inhibited
same,mature osteoclasts in co-incubation,[3]; day 6 after administration,completely disappeared
same,% Activation of ALP activity,ALP activity in MC3T3-E1; 10 μM,115 ± 9.4%
same,% Activation of ALP activity,ALP activity in MC3T3-E1; 50 μM,279 ± 61 %
same,% Activation of ALP activity,"ALP activity in MC3T3-E1; 50 μM, listed as osmundacetone",279±61% and 280%
